Assay results taken from ChEMBL document CHEMBL2331489, “Novel cinnoline-based inhibitors of LRRK2 kinase activity” (Bioorg Med Chem Lett, 2013).

Columns and labels:
[1] = target: PI3-kinase p110-alpha/p85-alpha (Homo sapiens) (UniProt P27986+P42336); assay: Inhibition of PIK3CA/PIK3R1 (unknown origin) at 10 uM relative to control; assay type: protein-complex assay
[2] = target: Rho-associated protein kinase 2 (Homo sapiens) (UniProt O75116); assay: Inhibition of ROCK2 (unknown origin) at 10 uM relative to control
[3] = target: Macrophage colony-stimulating factor 1 receptor (Homo sapiens, UniProt P07333); assay: Inhibition of CSF1R (unknown origin) at 10 uM relative to control
[4] = target: Receptor-interacting serine/threonine-protein kinase 2 (Homo sapiens) (UniProt O43353); assay: Inhibition of RIPK2 (unknown origin) at 10 uM relative to control
[5] = target: T1, Serine/threonine-protein kinase 3 (Homo sapiens) (UniProt Q13188); assay: Inhibition of STK3 (unknown origin) at 10 uM relative to control
T1 sequence (whole entry): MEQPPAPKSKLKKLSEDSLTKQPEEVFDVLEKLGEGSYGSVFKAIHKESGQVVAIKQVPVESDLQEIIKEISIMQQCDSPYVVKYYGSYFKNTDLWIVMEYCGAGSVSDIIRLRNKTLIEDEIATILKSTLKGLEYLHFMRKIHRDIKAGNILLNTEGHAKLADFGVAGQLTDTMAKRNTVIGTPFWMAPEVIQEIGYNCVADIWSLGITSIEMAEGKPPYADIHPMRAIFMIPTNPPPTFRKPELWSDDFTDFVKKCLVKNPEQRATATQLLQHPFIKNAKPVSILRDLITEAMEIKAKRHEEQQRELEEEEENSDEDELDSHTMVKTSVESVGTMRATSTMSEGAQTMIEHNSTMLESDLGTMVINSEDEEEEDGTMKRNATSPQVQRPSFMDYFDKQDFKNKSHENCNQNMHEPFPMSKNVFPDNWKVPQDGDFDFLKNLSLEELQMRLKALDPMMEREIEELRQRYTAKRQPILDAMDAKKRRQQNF

[6] = target: T2, Aurora kinase A (Homo sapiens) (UniProt O14965); assay: Inhibition of Aurora A (unknown origin) at 10 uM relative to control
T2 sequence (whole entry): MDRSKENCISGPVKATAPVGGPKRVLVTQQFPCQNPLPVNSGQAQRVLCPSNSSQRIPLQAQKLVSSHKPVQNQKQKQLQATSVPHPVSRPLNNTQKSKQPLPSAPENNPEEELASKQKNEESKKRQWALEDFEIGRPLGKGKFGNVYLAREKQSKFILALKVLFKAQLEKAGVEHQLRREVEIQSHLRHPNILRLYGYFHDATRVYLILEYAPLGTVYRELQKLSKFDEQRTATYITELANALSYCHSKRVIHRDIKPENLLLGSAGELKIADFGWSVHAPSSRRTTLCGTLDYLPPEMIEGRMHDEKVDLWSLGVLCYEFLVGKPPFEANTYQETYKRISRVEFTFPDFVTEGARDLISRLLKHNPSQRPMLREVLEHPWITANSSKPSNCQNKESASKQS

[7] = target: Mitogen-activated protein kinase 10 (Homo sapiens) (UniProt P53779); assay: Inhibition of MAPK10 (unknown origin) at 10 uM relative to control
[8] = target: Platelet-derived growth factor receptor alpha (Homo sapiens, UniProt P16234); assay: Inhibition of PDGFRalpha (unknown origin) at 10 uM relative to control
[9] = target: Cyclin-dependent kinase 5/CDK5 activator 1 (Homo sapiens) (UniProt Q00535+Q15078); assay: Inhibition of CDK5/P25 (unknown origin) at 10 uM relative to control; assay type: protein-complex assay
[10] = target: Serine/threonine-protein kinase MARK2 (Homo sapiens) (UniProt Q7KZI7); assay: Inhibition of MARK2 (unknown origin) at 10 uM relative to control
[11] = target: Dual specificity protein kinase CLK1 (Homo sapiens) (UniProt P49759); assay: Inhibition of CLK1 (unknown origin) at 10 uM relative to control
[12] = target: Serine/threonine-protein kinase PLK2 (Homo sapiens) (UniProt Q9NYY3); assay: Inhibition of PLK2 (unknown origin) at 10 uM relative to control
[13] = target: Receptor-type tyrosine-protein kinase FLT3 (Homo sapiens) (UniProt P36888); assay: Inhibition of FLT3 (unknown origin) at 10 uM relative to control
[14] = target: cAMP-dependent protein kinase catalytic subunit alpha (Homo sapiens) (UniProt P17612); assay: Inhibition of PRKACA (unknown origin) at 10 uM relative to control
[15] = target: Receptor tyrosine-protein kinase erbB-4 (Homo sapiens) (UniProt Q15303); assay: Inhibition of ERBB4 (unknown origin) at 10 uM relative to control
[16] = target: Protein-tyrosine kinase 2-beta (Homo sapiens) (UniProt Q14289); assay: Inhibition of FAK2 (unknown origin) at 10 uM relative to control
[17] = target: T3, Dual specificity protein kinase TTK (Homo sapiens) (UniProt P33981); assay: Inhibition of TTK (unknown origin) at 10 uM relative to control
T3 sequence (whole entry): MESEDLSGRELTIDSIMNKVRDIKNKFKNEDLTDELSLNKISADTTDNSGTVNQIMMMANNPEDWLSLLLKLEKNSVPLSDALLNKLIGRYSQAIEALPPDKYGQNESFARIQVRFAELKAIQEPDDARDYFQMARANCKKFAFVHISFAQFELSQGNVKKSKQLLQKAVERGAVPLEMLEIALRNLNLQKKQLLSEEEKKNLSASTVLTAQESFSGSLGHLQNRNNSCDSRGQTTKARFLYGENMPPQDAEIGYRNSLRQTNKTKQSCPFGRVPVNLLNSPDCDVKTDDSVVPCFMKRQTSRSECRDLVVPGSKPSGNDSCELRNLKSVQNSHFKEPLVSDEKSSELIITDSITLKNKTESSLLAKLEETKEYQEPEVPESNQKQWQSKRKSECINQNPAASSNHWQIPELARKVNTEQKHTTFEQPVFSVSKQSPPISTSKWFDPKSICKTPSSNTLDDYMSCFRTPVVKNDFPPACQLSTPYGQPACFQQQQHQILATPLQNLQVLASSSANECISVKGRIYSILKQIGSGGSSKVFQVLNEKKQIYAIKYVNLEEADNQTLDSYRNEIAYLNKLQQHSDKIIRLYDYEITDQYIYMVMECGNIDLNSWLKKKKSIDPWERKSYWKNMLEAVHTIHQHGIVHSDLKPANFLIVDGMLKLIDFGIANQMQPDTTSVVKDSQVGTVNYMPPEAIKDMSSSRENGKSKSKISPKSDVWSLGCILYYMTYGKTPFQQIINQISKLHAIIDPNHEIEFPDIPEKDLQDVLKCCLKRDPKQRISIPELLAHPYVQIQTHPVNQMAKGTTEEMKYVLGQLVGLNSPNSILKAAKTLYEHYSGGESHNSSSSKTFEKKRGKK

[18] = target: Serine/threonine-protein kinase PAK 4 (Homo sapiens) (UniProt O96013); assay: Inhibition of PAK4 (unknown origin) at 10 uM relative to control

Chain of Macrophage colony-stimulating factor 1 receptor (P07333 whole entry): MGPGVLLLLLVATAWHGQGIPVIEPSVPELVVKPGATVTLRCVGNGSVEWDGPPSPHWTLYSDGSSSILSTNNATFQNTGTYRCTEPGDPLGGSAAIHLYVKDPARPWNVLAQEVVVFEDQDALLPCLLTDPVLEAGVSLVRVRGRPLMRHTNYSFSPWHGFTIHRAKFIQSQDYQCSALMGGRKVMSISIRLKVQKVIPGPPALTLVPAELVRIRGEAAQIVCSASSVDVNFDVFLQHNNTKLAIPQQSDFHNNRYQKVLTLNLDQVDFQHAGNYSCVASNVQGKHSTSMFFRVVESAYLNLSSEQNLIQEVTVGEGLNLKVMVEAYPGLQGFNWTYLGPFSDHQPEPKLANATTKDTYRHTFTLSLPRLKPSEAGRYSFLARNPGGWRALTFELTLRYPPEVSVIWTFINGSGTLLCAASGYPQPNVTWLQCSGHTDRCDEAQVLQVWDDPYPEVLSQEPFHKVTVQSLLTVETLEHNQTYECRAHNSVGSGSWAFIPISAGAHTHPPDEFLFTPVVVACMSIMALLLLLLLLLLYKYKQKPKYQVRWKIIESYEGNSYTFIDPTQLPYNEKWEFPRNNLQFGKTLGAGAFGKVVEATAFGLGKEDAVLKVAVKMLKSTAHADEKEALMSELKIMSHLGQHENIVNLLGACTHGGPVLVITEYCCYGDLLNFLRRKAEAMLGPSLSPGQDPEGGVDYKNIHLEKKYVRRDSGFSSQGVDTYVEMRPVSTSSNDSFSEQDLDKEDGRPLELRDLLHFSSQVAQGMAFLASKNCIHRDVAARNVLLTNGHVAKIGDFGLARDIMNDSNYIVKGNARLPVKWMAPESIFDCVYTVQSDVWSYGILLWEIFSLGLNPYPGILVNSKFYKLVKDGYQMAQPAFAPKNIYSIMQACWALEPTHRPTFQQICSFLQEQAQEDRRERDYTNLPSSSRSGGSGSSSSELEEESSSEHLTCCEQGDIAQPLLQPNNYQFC
Chain of Platelet-derived growth factor receptor alpha (P16234 whole entry): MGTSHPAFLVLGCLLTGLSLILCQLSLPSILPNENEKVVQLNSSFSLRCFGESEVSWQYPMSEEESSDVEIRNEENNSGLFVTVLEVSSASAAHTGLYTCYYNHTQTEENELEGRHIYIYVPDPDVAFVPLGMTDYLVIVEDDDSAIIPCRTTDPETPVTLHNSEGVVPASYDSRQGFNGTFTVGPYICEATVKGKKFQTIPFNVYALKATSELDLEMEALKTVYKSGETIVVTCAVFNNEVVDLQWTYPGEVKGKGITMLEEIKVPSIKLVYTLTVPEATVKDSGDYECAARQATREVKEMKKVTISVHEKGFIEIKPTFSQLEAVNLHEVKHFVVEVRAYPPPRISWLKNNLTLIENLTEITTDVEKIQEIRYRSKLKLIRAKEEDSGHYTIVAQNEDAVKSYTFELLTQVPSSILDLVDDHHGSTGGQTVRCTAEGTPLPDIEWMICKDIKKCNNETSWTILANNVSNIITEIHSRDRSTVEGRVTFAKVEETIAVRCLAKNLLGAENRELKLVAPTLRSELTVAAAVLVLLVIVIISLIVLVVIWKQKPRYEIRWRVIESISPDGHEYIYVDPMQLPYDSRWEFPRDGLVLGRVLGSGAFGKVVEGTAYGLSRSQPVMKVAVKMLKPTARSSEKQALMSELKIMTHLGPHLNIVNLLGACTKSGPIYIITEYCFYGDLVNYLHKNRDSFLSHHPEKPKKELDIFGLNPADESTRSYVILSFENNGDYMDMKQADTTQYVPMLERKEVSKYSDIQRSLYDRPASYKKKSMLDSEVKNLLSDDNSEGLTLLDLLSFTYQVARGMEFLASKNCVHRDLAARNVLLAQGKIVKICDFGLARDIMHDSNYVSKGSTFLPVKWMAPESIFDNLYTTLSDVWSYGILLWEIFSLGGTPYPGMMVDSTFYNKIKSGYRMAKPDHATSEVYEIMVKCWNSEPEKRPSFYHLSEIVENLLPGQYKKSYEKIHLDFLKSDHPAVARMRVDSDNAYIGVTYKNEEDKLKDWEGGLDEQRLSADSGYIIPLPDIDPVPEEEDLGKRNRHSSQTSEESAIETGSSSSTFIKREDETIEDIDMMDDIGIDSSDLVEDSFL
Chain of Mitogen-activated protein kinase 10 (Homo sapiens) (P53779 whole entry): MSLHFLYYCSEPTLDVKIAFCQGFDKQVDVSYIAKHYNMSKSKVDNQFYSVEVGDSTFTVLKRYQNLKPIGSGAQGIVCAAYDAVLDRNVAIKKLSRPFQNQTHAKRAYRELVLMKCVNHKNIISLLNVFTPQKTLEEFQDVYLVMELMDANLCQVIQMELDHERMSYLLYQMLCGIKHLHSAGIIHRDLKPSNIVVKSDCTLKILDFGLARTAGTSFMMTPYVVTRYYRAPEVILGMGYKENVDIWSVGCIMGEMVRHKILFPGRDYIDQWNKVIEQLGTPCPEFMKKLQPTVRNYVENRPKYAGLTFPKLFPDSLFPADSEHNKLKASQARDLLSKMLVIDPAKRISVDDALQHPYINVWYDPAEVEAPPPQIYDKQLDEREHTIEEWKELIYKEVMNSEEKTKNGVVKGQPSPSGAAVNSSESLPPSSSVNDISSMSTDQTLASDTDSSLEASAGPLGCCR
Chain of Rho-associated protein kinase 2 (Homo sapiens) (O75116 whole entry, looked up): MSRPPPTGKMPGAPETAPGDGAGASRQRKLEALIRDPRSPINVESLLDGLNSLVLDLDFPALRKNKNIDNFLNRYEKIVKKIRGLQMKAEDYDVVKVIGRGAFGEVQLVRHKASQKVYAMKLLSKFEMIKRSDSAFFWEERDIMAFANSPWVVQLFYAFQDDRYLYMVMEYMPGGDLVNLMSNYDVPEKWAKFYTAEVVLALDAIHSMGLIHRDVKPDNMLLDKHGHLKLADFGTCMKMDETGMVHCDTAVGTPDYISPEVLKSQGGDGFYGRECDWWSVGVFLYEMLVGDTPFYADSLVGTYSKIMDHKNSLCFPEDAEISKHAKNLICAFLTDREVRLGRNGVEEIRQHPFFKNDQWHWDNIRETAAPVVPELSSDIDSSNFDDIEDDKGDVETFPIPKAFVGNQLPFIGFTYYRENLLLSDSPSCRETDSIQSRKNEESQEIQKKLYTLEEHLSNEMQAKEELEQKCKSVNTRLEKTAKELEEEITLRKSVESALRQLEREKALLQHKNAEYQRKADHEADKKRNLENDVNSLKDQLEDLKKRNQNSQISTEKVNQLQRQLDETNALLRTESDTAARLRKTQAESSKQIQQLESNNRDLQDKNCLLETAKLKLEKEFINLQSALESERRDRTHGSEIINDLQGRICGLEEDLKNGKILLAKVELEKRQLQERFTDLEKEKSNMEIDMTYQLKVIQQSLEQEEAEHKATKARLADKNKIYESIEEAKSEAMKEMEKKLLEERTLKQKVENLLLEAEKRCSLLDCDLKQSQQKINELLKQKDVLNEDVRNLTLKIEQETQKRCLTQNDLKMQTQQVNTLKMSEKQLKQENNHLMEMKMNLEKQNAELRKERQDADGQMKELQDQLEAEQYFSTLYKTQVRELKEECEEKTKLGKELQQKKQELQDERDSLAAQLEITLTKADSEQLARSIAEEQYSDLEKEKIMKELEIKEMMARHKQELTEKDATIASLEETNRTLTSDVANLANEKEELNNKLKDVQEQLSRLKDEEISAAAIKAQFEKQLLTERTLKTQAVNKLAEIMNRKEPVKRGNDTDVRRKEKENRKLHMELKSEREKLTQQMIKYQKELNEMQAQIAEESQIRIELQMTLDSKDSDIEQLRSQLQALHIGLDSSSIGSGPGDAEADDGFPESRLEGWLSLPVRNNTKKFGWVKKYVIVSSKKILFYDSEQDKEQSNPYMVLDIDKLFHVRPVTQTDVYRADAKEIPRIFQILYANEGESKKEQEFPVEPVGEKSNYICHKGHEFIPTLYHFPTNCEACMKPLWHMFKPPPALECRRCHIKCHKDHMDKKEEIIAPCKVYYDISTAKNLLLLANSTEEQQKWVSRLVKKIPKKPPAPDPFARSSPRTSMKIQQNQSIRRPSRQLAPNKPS
Chain of Serine/threonine-protein kinase PLK2 (Homo sapiens) (Q9NYY3 whole entry, looked up): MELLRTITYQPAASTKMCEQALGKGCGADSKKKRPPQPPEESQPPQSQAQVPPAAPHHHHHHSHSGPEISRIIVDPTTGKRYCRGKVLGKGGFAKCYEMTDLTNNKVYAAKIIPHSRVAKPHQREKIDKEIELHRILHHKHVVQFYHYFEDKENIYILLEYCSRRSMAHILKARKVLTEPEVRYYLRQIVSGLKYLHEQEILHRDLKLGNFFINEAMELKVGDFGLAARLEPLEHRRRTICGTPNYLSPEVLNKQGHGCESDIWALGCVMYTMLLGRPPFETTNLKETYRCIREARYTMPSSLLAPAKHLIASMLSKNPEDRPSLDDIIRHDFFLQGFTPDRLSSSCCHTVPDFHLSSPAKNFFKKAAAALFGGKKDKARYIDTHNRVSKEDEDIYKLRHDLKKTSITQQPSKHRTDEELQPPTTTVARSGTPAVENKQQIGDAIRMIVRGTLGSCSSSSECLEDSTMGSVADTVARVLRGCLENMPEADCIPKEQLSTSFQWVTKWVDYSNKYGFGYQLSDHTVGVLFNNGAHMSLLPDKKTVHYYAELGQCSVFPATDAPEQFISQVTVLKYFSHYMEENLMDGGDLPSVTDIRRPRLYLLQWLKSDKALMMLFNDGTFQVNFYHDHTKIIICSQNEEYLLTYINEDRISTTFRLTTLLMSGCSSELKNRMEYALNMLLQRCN
Chain of Dual specificity protein kinase CLK1 (Homo sapiens) (P49759 whole entry, looked up): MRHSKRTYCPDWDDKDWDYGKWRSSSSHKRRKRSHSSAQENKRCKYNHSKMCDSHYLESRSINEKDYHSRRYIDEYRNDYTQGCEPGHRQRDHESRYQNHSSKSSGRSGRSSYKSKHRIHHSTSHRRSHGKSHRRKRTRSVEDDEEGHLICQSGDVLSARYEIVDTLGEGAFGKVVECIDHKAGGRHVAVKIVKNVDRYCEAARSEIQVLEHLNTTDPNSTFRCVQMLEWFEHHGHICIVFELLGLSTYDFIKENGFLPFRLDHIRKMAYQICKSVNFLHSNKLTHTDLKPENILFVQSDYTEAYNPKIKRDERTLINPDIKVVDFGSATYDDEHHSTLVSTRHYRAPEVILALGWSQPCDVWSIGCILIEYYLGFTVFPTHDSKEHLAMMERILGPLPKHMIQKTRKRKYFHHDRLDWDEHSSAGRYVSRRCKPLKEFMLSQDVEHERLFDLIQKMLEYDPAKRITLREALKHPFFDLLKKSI

CC(C)Nc1c(C(N)=O)cnc2cc(-c3ccc(S(C)(=O)=O)cc3)ccc12
inhibition [1]: -2%
inhibition [2]: 86%
inhibition [3]: 98%
inhibition [4]: 52%
inhibition [5]: 100%
inhibition [6]: 60%
inhibition [7]: 4%
inhibition [8]: 98%
inhibition [9]: 2%
inhibition [10]: 94%
inhibition [11]: 2%
inhibition [12]: 7%
inhibition [13]: 75%
inhibition [14]: 6%
inhibition [15]: 11%
inhibition [16]: 47%
inhibition [17]: 50%
inhibition [18]: 64%

CS(=O)(=O)c1ccc(-c2ccc3c(NC4CCC4)c(C(N)=O)nnc3c2)cc1
inhibition [1]: 2%
inhibition [2]: 53%
inhibition [3]: 100%
inhibition [4]: 15%
inhibition [5]: 66%
inhibition [6]: 34%
inhibition [7]: 21%
inhibition [8]: 94%
inhibition [9]: -1%
inhibition [10]: 53%
inhibition [11]: 14%
inhibition [12]: 11%
inhibition [13]: 72%
inhibition [14]: 0%
inhibition [15]: 4%
inhibition [16]: 28%
inhibition [17]: 60%
inhibition [18]: 43%

CC(C)Nc1c(C(N)=O)nnc2cc(-c3ccncc3)ccc12
inhibition [1]: 70%
inhibition [2]: 97%
inhibition [4]: 76%
inhibition [6]: 90%
inhibition [7]: 81%
inhibition [9]: 32%
inhibition [10]: 95%
inhibition [11]: 60%
inhibition [12]: 30%
inhibition [13]: 96%
inhibition [14]: 29%
inhibition [15]: 22%
inhibition [16]: 78%
inhibition [17]: 94%
inhibition [18]: 82%

C[C@@H](Nc1c(C(N)=O)nnc2cc(-c3ccc(S(C)(=O)=O)cc3)ccc12)C1CC1
inhibition [1]: 10%
inhibition [2]: 70%
inhibition [3]: 100%
inhibition [4]: 28%
inhibition [5]: 91%
inhibition [6]: 68%
inhibition [7]: 21%
inhibition [8]: 93%
inhibition [10]: 80%
inhibition [11]: 5%
inhibition [12]: 17%
inhibition [13]: 80%
inhibition [14]: -1%
inhibition [15]: 12%
inhibition [16]: 24%
inhibition [17]: 35%
inhibition [18]: 33%

CC(C)Nc1c(C(N)=O)nnc2ccc(-c3cn[nH]c3)cc12
inhibition [1]: 95%
inhibition [2]: 99%
inhibition [3]: 96%
inhibition [4]: 98%
inhibition [5]: 100%
inhibition [6]: 100%
inhibition [7]: 93%
inhibition [8]: 101%
inhibition [9]: 97%
inhibition [10]: 87%
inhibition [11]: 101%
inhibition [12]: 80%
inhibition [13]: 101%
inhibition [14]: 53%
inhibition [15]: 38%
inhibition [16]: 70%
inhibition [17]: 97%
inhibition [18]: 81%

CC(C)Nc1c(C(N)=O)nnc2ccc(-c3ccncc3)cc12
inhibition [1]: 94%
inhibition [2]: 88%
inhibition [3]: 90%
inhibition [4]: 91%
inhibition [5]: 99%
inhibition [6]: 83%
inhibition [7]: 88%
inhibition [8]: 100%
inhibition [9]: 82%
inhibition [10]: 88%
inhibition [11]: 103%
inhibition [12]: 51%
inhibition [13]: 102%
inhibition [14]: 43%
inhibition [15]: 21%
inhibition [16]: 26%
inhibition [17]: 93%
inhibition [18]: 58%

CC(C)Nc1c(C(N)=O)nnc2cc(N3CCOCC3)ccc12
inhibition [1]: 15%
inhibition [2]: 78%
inhibition [3]: 97%
inhibition [4]: 44%
inhibition [5]: 42%
inhibition [6]: 81%
inhibition [7]: 17%
inhibition [8]: 98%
inhibition [9]: 3%
inhibition [10]: 81%
inhibition [11]: 4%
inhibition [12]: 6%
inhibition [13]: 99%
inhibition [14]: -2%
inhibition [15]: 15%
inhibition [16]: 39%
inhibition [17]: 67%
inhibition [18]: 59%
